{"source": "patent US20040180959A1", "about": "“Gabapentin analogues for fibromy algia and concomitant disorders” (priority 2002, published 2004)", "type_in_all_cases": "in vivo", "key": {"mice": {"test_system": "mice", "experiment": "Inverted Screen Test to assess coordination", "conditions": "immediately following the TST", "experimental": "Immediately following the TST, mice were also tested in the Inverted Screen Test to assess coordination. Animals were given a 1-minute trial in which they had to climb to the top of the inverted screen or to simply hang on and not fall off."}, "CD-1 mice": {"test_system": "CD-1 mice", "experiment": "Tail Suspension Test (TST) in mice", "conditions": "2 hours after treatment", "experimental": "The anxiolytic and antidepressant activity of (3S, 4S)-(1-Aminomethyl-3,4-dimethyl-cyclopentyl)-acetic acid (“Compound A”) was assessed using the Tail Suspension Test (TST) in mice, and in the Water-lick (Vogel) Conflict Test (WLC) in rats. The Vogel test is a recognized test procedure for assessing the potential anxiolytic utility. The TST procedure is a behavior despair paradigm used to assess potential antidepressant activity.\nThe method consisted of suspending mice by a piece of cellophane tape attached to the distal end of the tail for 6 minutes. Animals (CD-1 mice, weighing 22 to 27 g, from Charles River Labs) were tested. The test apparatus was the TST-2™ (ITEM-Labo, Le Kremmlin-Bicetre Cedex, France). Data were analyzed with analysis of variance (ANOVA) and Tukey's Multiple Range Test or Student's t-test.\n(§1) Compound A was dissolved in water and tested orally as a solution from 0.3 to 100 mg/kg in rats and 3 to 300 mg/kg in mice. Dosages are expressed as the active moiety and were administered in a volume of 1 mL/kg for rats and 10 mL/kg for mice.\nThe profile of typical […] activity in the TST consists of […]. Compound A and pregabalin were tested concurrently (PO) 2 hours after treatment. Compound A was administered at doses ranging from 3 to 100 mg/kg and pregabalin was tested from 3-300 mg/kg and served as positive control (Table 1). Compound A dose dependently increases immobility with the MED observed at the 3 mg/kg dosage and maximal effects were seen following the 30 mg/kg dose."}, "Wistar rats": {"test_system": "Wistar rats", "experiment": "Water-lick (Vogel) Conflict Test in rats", "conditions": "for Percent of Animals Tested With >20 Shock Episodes / Mean Shock Episodes (1 mA): pretreatment 120 minutes; for Mean Shock Episodes (1 mA): Mean ± SEM", "experimental": "In each experiment, naive adult male Wistar rats between 170 to 200 g were randomly divided into groups (N=10-30/group) and deprived of water for 48 hours prior to testing. Food was available on Day 1 and removed 24 hours prior to test Day 2.\nApparatus: The modular operant test cage (Coulbourn Instruments) measures 10.25×12×12 in. The test chambers feature 3 modular bays on each side of the cage for a total of 6 bays. A module optical lickometer is mounted on one side of the chamber 5 cm above the grid floor. The lickometer is used to measure licking-drinking from a water bottle mounted outside the test chamber. A photo beam is piped via glass rods to the tip of the drink tube across a gap at the end of the tube. The animals tongue breaks the beam on each lick. The front and back of the test chamber is made of clear Plexiglas. The front door is covered to reduce distractions from inside the test room. The back of the test chamber is facing a wall, away from the flow of traffic within the testing room and remains uncovered to provide the opportunity for observations during testing. Shocks are delivered using a (Coulbourn) programmable universal shocker calibrated to deliver a 1 mA shock for 1 second through the drink tube.\nProcedure: On Day 1, after a 24-hour water deprivation, experimental subjects were placed into the test chambers and allowed to drink unpunished. Drinking was limited to 500 responses or approximately 5 mL of water during a 10 minute session. Immediately following the unpunished drinking session, rats were returned to their home cages, deprived of water for an additional 24 hours and was food deprived. […] After the pretreatment period rats were placed into a test chamber and allowed to drink for 10 minutes. After every 10 licks, rats received a 1-second shock (1 mA) through the drink tube. Thus, a conflict or anxiety-producing situation exists. Rats are motivated to drink; however, they are inhibited by the shock. Anxiety is reflected by the low amounts of drinking. Standard anxiolytic drugs produce effects that allow rats to overcome this behavioral inhibition and drink despite the shock.\nAll data were analyzed using a Kruskal-Wallis one Way Analysis of Variance on Ranks and Mann-Whitney Rank Sum Tests.\nQuantitative Analysis: A quantitative analysis represents the percentage of subjects within a treatment group that receives >20 shock episodes during a test session. This number provides a quantitative comparison regarding the distribution of the responses.\nas §1"}, "[1]": {"conditions": "dose 3× the Vogel MED (30 mg/kg)"}}}
{"smiles": "CC(C)C[C@H](CN)CC(=O)O", "note": "[Pregabalin, pregabalin, reference compound]", "values": [{"measurement": "Screen fall-off, animals of animals tested", "setting": "mice; 100 mg/kg PO", "result": "1 of 10"}, {"measurement": "Screen fall-off, animals of animals tested", "setting": "mice; 300 mg/kg PO", "result": "1 of 10"}, {"measurement": "Immobility, % Percent of control", "setting": "CD-1 mice; 3 mg/kg PO", "result": "102.9 ± 9.5", "unit": "%"}, {"measurement": "Power of Movement, % Percent of control", "setting": "CD-1 mice; 3 mg/kg PO", "result": "99.1 ± 22.9", "unit": "%"}, {"measurement": "Immobility, % Percent of control", "setting": "CD-1 mice; 10 mg/kg PO", "result": "134.5 ± 9.9", "unit": "%"}, {"measurement": "Power of Movement, % Percent of control", "setting": "CD-1 mice; 10 mg/kg PO", "result": "89.6 ± 18.7", "unit": "%"}, {"measurement": "Immobility, % Percent of control", "setting": "CD-1 mice; 30 mg/kg PO", "result": "136.9 ± 7.1", "unit": "%"}, {"measurement": "Power of Movement, % Percent of control", "setting": "CD-1 mice; 30 mg/kg PO", "result": "96.4 ± 22.7", "unit": "%"}, {"measurement": "Immobility, % Percent of control", "setting": "CD-1 mice; 100 mg/kg PO", "result": "152.7 ± 6.6", "unit": "%"}, {"measurement": "Power of Movement, % Percent of control", "setting": "CD-1 mice; 100 mg/kg PO", "result": "73.4 ± 12.5", "unit": "%"}, {"measurement": "Immobility, % Percent of control", "setting": "CD-1 mice; 300 mg/kg PO", "result": "160.5 ± 7.4", "unit": "%"}, {"measurement": "Power of Movement, % Percent of control", "setting": "CD-1 mice; 300 mg/kg PO", "result": "76.6 ± 12.2", "unit": "%"}, {"measurement": "Percent of Animals Tested With >20 Shock Episodes", "setting": "Wistar rats; 0.3 mg/kg PO", "result": 0, "unit": "%"}, {"measurement": "Mean Shock Episodes (1 mA)", "setting": "Wistar rats; 0.3 mg/kg PO", "result": "5.1 ± 1.0"}, {"measurement": "Percent of Animals Tested With >20 Shock Episodes", "setting": "Wistar rats; 1 mg/kg PO", "result": 20, "unit": "%"}, {"measurement": "Mean Shock Episodes (1 mA)", "setting": "Wistar rats; 1 mg/kg PO", "result": "15.0 ± 6.3"}, {"measurement": "Percent of Animals Tested With >20 Shock Episodes", "setting": "Wistar rats; 3 mg/kg PO", "result": 20, "unit": "%"}, {"measurement": "Mean Shock Episodes (1 mA)", "setting": "Wistar rats; 3 mg/kg PO", "result": "10.2 ± 1.6"}, {"measurement": "Percent of Animals Tested With >20 Shock Episodes", "setting": "Wistar rats; 10 mg/kg PO", "result": 20, "unit": "%"}, {"measurement": "Mean Shock Episodes (1 mA)", "setting": "Wistar rats; 10 mg/kg PO", "result": "14.7 ± 4.0"}, {"measurement": "Shock episodes (time-course)", "setting": "Wistar rats; 10 mg/kg, 1 hr post treatment", "result": "65.8 ± 10.8"}, {"measurement": "Shock episodes (time-course)", "setting": "Wistar rats; 10 mg/kg, 2 hr post treatment", "result": "73.3 ± 13.7"}, {"measurement": "Shock episodes (time-course)", "setting": "Wistar rats; 10 mg/kg, 4 hr post treatment", "result": "75.1 ± 13.7"}, {"measurement": "Shock episodes (time-course)", "setting": "Wistar rats; 10 mg/kg, 6 hr post treatment", "result": "54.9 ± 14.7"}, {"measurement": "Shock episodes (time-course)", "setting": "Wistar rats; 10 mg/kg, 8 hr post treatment", "result": "41.9 ± 13.5"}, {"measurement": "Percent of Animals Tested With >20 Shock Episodes", "setting": "Wistar rats; 30 mg/kg PO", "result": 50, "unit": "%"}, {"measurement": "Mean Shock Episodes (1 mA)", "setting": "Wistar rats; 30 mg/kg PO", "result": "51.0 ± 19.1"}, {"measurement": "Shock episodes (time-course)", "setting": "Wistar rats; 30 mg/kg, 30 min. post treatment", "result": "27.7 ± 8.2"}, {"measurement": "Shock episodes (time-course)", "setting": "Wistar rats; 30 mg/kg, 1 hr post treatment", "result": "66.5 ± 10"}, {"measurement": "Shock episodes (time-course)", "setting": "Wistar rats; 30 mg/kg, 2 hr post treatment", "result": "59.8 ± 9.8"}, {"measurement": "Shock episodes (time-course)", "setting": "Wistar rats; 30 mg/kg, 4 hr post treatment", "result": "100.3 ± 12"}, {"measurement": "Shock episodes (time-course)", "setting": "Wistar rats; 30 mg/kg, 6 hr post treatment", "result": "39.5 ± 9"}, {"measurement": "Shock episodes (time-course)", "setting": "Wistar rats; 30 mg/kg, 8 hr post treatment", "result": "30.4 ± 9.1"}, {"measurement": "Percent of Animals Tested With >20 Shock Episodes", "setting": "Wistar rats; 100 mg/kg PO", "result": 50, "unit": "%"}, {"measurement": "Mean Shock Episodes (1 mA)", "setting": "Wistar rats; 100 mg/kg PO", "result": "40.7 ± 11.1"}, {"measurement": "Time of maximal effects after treatment", "setting": "Wistar rats; MED dose 10 mg/kg", "result": "2 to 4", "unit": "h"}, {"measurement": "Activity maintained through", "setting": "Wistar rats; [1]", "result": 8, "unit": "h"}, {"measurement": "Onset of activity after treatment", "setting": "Wistar rats; [1]", "result": 1, "unit": "h"}, {"measurement": "Time of peak activity post treatment", "setting": "Wistar rats; [1]", "result": 6, "unit": "h"}, {"measurement": "MED for anti-conflict activity", "setting": "Wistar rats; oral, 2 hour pretreatment, rats", "result": 10, "unit": "mg/kg"}]}
